Assay results as given in patent publication US20190077802A1, “DIFLUORO-(2-SUBSTITUTED CARBAMOYL-1,6-DIAZA-BICYCLO [3.2.1] OCT-6-YLOXY) ACETIC ACID COMPOUNDS AND THEIR USE IN TREATMENT OF BACTERIAL INFECTIONS” (WOCKHARDT LIMITED, priority 2015, published 2019).
≈ marks a conversion by molar mass, not a printed value.

Legend:
Assay in all cases: Agar dilution MIC (CLSI)
[1] = test system: E. coli M 36; type: cell-based; details: Escherichia coli, M36, Mueller Hinton Agar
Protocol: (§1) The biological activity of representative compounds according to the invention against various bacterial strains was investigated. In a typical study, overnight grown bacterial cultures were diluted appropriately and inoculated on the agar media containing doubling dilutions of the test compounds. Observations for growth or no growth was performed after 16-20 hours of incubation at 35±2° C. in the ambient air. The overall procedure was performed as per Clinical and Laboratory Standards Institute (CLSI) recommendations, (Clinical and Laboratory Standards Institute (CLSI), Performance Standards for Antimicrobial Susceptibility Testing, 20th Informational Supplement, M07-A9, Volume 32, No. 2, 2012). Molten Mueller Hinton Agar (MHA) (BD, USA) containing serial dilutions of each antibacterial agent were poured on to the plates and allowed to solidify. Appropriate suspensions from the freshly grown cultures were prepared in normal saline so that about 10^4 CFU/spot of the organism was delivered on to the drug containing agar plates using automated multipoint inoculator (Mast, UK). The plates were incubated in Biochemical oxygen demand (BOD) incubator at 37° C. for 18 hours and then examined for growth.
(§2) The Table 2 depicts the antibacterial activity profile of compounds according to present invention against various multidrug resistant bacterial strains.

[2] = test system: E. coli 13351; type: cell-based; details: Escherichia coli, Mueller Hinton Agar
Protocol: as §1, §2

[3] = test system: K. pneumoniae H 525; type: cell-based; details: Klebsiella pneumoniae, H525, Mueller Hinton Agar
Protocol: as §1, §2

[4] = test system: E. coli M 49; type: cell-based; details: Escherichia coli, M49, Mueller Hinton Agar
Protocol: as §1, §2

[5] = test system: E. coli 7 MP; type: cell-based; details: Escherichia coli, Mueller Hinton Agar
Protocol: as §1, §2

[6] = test system: K. pneumoniae H 522; type: cell-based; details: Klebsiella pneumoniae, H522, Mueller Hinton Agar
Protocol: as §1, §2

[7] = test system: E. coli S 18; type: cell-based; details: Escherichia coli, S18, Mueller Hinton Agar
Protocol: as §1, §2

[8] = test system: K. pneumoniae H 521; type: cell-based; details: Klebsiella pneumoniae, H521, Mueller Hinton Agar
Protocol: as §1, §2

[9] = test system: E. coli M 50; type: cell-based; details: Escherichia coli, M50, Mueller Hinton Agar
Protocol: as §1, §2

[10] = test system: E. coli 13352; type: cell-based; details: Escherichia coli, Mueller Hinton Agar
Protocol: as §1, §2

[11] = test system: E. coli 13353; type: cell-based; details: Escherichia coli, Mueller Hinton Agar
Protocol: as §1, §2

[12] = test system: E. coli M 138; type: cell-based; details: Escherichia coli, M138, Mueller Hinton Agar
Protocol: as §1, §2

[13] = test system: K. pneumoniae H 523; type: cell-based; details: Klebsiella pneumoniae, H523, Mueller Hinton Agar
Protocol: as §1, §2

[14] = test system: KP ATCC 700603; type: cell-based, K. pneumoniae; details: Klebsiella pneumoniae, ATCC700603, Mueller Hinton Agar
Protocol: as §1, §2

[15] = test system: E. coli H 483; type: cell-based; details: Escherichia coli, H483, Mueller Hinton Agar
Protocol: as §1, §2

O=C(NOC[C@@H]1CCCN1)[C@@H]1CC[C@@H]2CN1C(=O)N2OC(F)(F)C(=O)O [Example 1]
MIC [1]: 2 µg/mL (≈ 5.29 µM) | MIC [2]: 2 µg/mL (≈ 5.29 µM) | MIC [3]: 2 µg/mL (≈ 5.29 µM) | MIC [4]: 8 µg/mL (≈ 21.1 µM) | MIC [5]: 4 µg/mL (≈ 10.6 µM) | MIC [6]: 2 µg/mL (≈ 5.29 µM) | MIC [7]: 2 µg/mL (≈ 5.29 µM) | MIC [8]: 4 µg/mL (≈ 10.6 µM) | MIC [9]: 2 µg/mL (≈ 5.29 µM) | MIC [10]: 2 µg/mL (≈ 5.29 µM) | MIC [11]: 2 µg/mL (≈ 5.29 µM) | MIC [12]: 2 µg/mL (≈ 5.29 µM) | MIC [13]: 2 µg/mL (≈ 5.29 µM) | MIC [14]: > 32 µg/mL

O=C(NOC[C@H]1CCCN1)[C@@H]1CC[C@@H]2CN1C(=O)N2OC(F)(F)C(=O)O [Example 2]
MIC [1]: 0.5 µg/mL (≈ 1.32 µM) | MIC [2]: 1 µg/mL (≈ 2.64 µM) | MIC [3]: 1 µg/mL (≈ 2.64 µM) | MIC [4]: 2 µg/mL (≈ 5.29 µM) | MIC [5]: 2 µg/mL (≈ 5.29 µM) | MIC [6]: 1 µg/mL (≈ 2.64 µM) | MIC [8]: 1 µg/mL (≈ 2.64 µM) | MIC [9]: 1 µg/mL (≈ 2.64 µM) | MIC [10]: 1 µg/mL (≈ 2.64 µM) | MIC [11]: 0.5 µg/mL (≈ 1.32 µM) | MIC [12]: 1 µg/mL (≈ 2.64 µM) | MIC [13]: 1 µg/mL (≈ 2.64 µM) | MIC [14]: > 32 µg/mL

O=C(NOC1CCNC1)[C@@H]1CC[C@@H]2CN1C(=O)N2OC(F)(F)C(=O)O (some centres unmarked) [Example 3]
MIC [1]: 4 µg/mL (≈ 11 µM) | MIC [2]: 4 µg/mL (≈ 11 µM) | MIC [3]: 4 µg/mL (≈ 11 µM) | MIC [4]: 8 µg/mL (≈ 22 µM) | MIC [5]: 8 µg/mL (≈ 22 µM) | MIC [6]: 4 µg/mL (≈ 11 µM) | MIC [7]: 16 µg/mL (≈ 43.9 µM) | MIC [8]: 4 µg/mL (≈ 11 µM) | MIC [15]: > 32 µg/mL | MIC [9]: 4 µg/mL (≈ 11 µM) | MIC [10]: 4 µg/mL (≈ 11 µM) | MIC [11]: 4 µg/mL (≈ 11 µM) | MIC [12]: 4 µg/mL (≈ 11 µM) | MIC [13]: 4 µg/mL (≈ 11 µM) | MIC [14]: > 32 µg/mL

O=C(NOC[C@H]1CCCCN1)[C@@H]1CC[C@@H]2CN1C(=O)N2OC(F)(F)C(=O)O [Example 4]
MIC [1]: 1 µg/mL (≈ 2.55 µM) | MIC [3]: 1 µg/mL (≈ 2.55 µM) | MIC [4]: 4 µg/mL (≈ 10.2 µM) | MIC [5]: 2 µg/mL (≈ 5.1 µM) | MIC [6]: 1 µg/mL (≈ 2.55 µM) | MIC [7]: 2 µg/mL (≈ 5.1 µM) | MIC [8]: 2 µg/mL (≈ 5.1 µM) | MIC [15]: > 32 µg/mL | MIC [9]: 2 µg/mL (≈ 5.1 µM) | MIC [10]: 1 µg/mL (≈ 2.55 µM) | MIC [11]: 1 µg/mL (≈ 2.55 µM) | MIC [12]: 2 µg/mL (≈ 5.1 µM) | MIC [13]: 1 µg/mL (≈ 2.55 µM) | MIC [14]: > 32 µg/mL

O=C(NOC[C@@H]1CCCCN1)[C@@H]1CC[C@@H]2CN1C(=O)N2OC(F)(F)C(=O)O [Example 5]
MIC [1]: 4 µg/mL (≈ 10.2 µM) | MIC [2]: 8 µg/mL (≈ 20.4 µM) | MIC [3]: 4 µg/mL (≈ 10.2 µM) | MIC [4]: 8 µg/mL (≈ 20.4 µM) | MIC [5]: 8 µg/mL (≈ 20.4 µM) | MIC [6]: 4 µg/mL (≈ 10.2 µM) | MIC [7]: 4 µg/mL (≈ 10.2 µM) | MIC [8]: 4 µg/mL (≈ 10.2 µM) | MIC [9]: 4 µg/mL (≈ 10.2 µM) | MIC [10]: 4 µg/mL (≈ 10.2 µM) | MIC [11]: 4 µg/mL (≈ 10.2 µM) | MIC [12]: 4 µg/mL (≈ 10.2 µM) | MIC [13]: 4 µg/mL (≈ 10.2 µM) | MIC [14]: > 32 µg/mL

O=C(NOC[C@H]1CCCCCN1)[C@@H]1CC[C@@H]2CN1C(=O)N2OC(F)(F)C(=O)O [Example 6]
MIC [1]: 1 µg/mL (≈ 2.46 µM) | MIC [2]: 2 µg/mL (≈ 4.92 µM) | MIC [3]: 1 µg/mL (≈ 2.46 µM) | MIC [4]: 8 µg/mL (≈ 19.7 µM) | MIC [5]: 4 µg/mL (≈ 9.84 µM) | MIC [6]: 2 µg/mL (≈ 4.92 µM) | MIC [7]: 2 µg/mL (≈ 4.92 µM) | MIC [8]: 2 µg/mL (≈ 4.92 µM) | MIC [15]: > 32 µg/mL | MIC [9]: 2 µg/mL (≈ 4.92 µM) | MIC [10]: 2 µg/mL (≈ 4.92 µM) | MIC [11]: 1 µg/mL (≈ 2.46 µM) | MIC [12]: 2 µg/mL (≈ 4.92 µM) | MIC [13]: 2 µg/mL (≈ 4.92 µM) | MIC [14]: > 32 µg/mL

O=C(NOC[C@@H]1CCCCCN1)[C@@H]1CC[C@@H]2CN1C(=O)N2OC(F)(F)C(=O)O [Example 7]
MIC [1]: 4 µg/mL (≈ 9.84 µM) | MIC [2]: 2 µg/mL (≈ 4.92 µM) | MIC [3]: 2 µg/mL (≈ 4.92 µM) | MIC [4]: 2 µg/mL (≈ 4.92 µM) | MIC [5]: 4 µg/mL (≈ 9.84 µM) | MIC [6]: 2 µg/mL (≈ 4.92 µM) | MIC [8]: 2 µg/mL (≈ 4.92 µM) | MIC [9]: 2 µg/mL (≈ 4.92 µM) | MIC [10]: 2 µg/mL (≈ 4.92 µM) | MIC [11]: 4 µg/mL (≈ 9.84 µM) | MIC [12]: 4 µg/mL (≈ 9.84 µM) | MIC [13]: 2 µg/mL (≈ 4.92 µM) | MIC [14]: > 32 µg/mL

NCCONC(=O)[C@@H]1CC[C@@H]2CN1C(=O)N2OC(F)(F)C(=O)O [Example 8]
MIC [1]: 2 µg/mL (≈ 5.91 µM) | MIC [2]: 4 µg/mL (≈ 11.8 µM) | MIC [3]: 4 µg/mL (≈ 11.8 µM) | MIC [4]: 4 µg/mL (≈ 11.8 µM) | MIC [5]: 8 µg/mL (≈ 23.6 µM) | MIC [6]: 4 µg/mL (≈ 11.8 µM) | MIC [7]: 4 µg/mL (≈ 11.8 µM) | MIC [8]: 4 µg/mL (≈ 11.8 µM) | MIC [15]: > 32 µg/mL | MIC [9]: 4 µg/mL (≈ 11.8 µM) | MIC [10]: 4 µg/mL (≈ 11.8 µM) | MIC [11]: 4 µg/mL (≈ 11.8 µM) | MIC [12]: 4 µg/mL (≈ 11.8 µM) | MIC [13]: 4 µg/mL (≈ 11.8 µM) | MIC [14]: > 32 µg/mL
